Measured values as given in PMC6925144, “A prospective compound screening contest identified broader inhibitors for Sirtuin 1” (Scientific Reports, 2019).
Like-named read-outs stand apart in the source and are kept apart here. Ends that are not written are not given here.

Experiments:
[1] = molecular target: T1, human SIRT1 (Homo sapiens, UniProt Q96EB6); assay: Thermal shift assay (TSA) of Sirtuin 1 without NAD+; type: binding; conditions: for thermal shift in SIRT1 melting curves, separate additions: separate additions of H3K9 (120 µM) or NAD+ (500 µM); for ΔTm at 10 µM: read-out: ΔTm Sirtuin 1
T1 construct: host or cells: Escherichia coli M15
T1 sequence (Q96EB6 with tags, fused parts or gaps): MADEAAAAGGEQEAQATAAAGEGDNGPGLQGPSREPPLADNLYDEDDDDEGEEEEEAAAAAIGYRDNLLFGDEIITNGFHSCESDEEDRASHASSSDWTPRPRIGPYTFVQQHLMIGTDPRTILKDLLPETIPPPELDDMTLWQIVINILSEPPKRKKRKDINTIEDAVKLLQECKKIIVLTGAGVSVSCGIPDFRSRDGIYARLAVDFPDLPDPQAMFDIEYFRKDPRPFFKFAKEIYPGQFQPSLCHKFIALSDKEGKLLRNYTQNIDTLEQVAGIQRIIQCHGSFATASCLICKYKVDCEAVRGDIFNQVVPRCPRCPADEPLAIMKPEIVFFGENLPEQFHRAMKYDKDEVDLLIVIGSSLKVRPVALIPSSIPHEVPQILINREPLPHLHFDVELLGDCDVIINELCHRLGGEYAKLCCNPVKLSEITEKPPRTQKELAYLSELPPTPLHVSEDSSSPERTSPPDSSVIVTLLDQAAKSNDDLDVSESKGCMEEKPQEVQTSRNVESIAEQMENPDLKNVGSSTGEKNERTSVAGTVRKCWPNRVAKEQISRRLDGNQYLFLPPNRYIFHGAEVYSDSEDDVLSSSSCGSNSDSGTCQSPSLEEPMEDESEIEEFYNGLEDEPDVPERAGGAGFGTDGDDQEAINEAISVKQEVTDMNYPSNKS
Procedure: (§1) A total of 3,192 compounds extracted from the proposed lists were first screened by thermal shift assay (TSA), which determined a melting temperature shift (ΔTm) of Sirtuin 1 upon the addition of a test compound at a concentration of 10 µM (n = 1) with primary hit criteria of ΔTm > 0.45 K or ΔTm < −1.5 K. Primary hits (48 compounds) were retested in the same assay at three concentrations (5, 10, 20 µM, n = 4) for hit confirmation and for dose-dependency check. Secondary hits (41 compounds) were checked their selectivity for Sirtuin 1 based on counterscreening on unrelated protein targets (bovine carbonic anhydrase (CA) and recombinant SH2 domain of hABL1 kinase (ABL1)) at three different concentrations (5, 10, 20 µM, n = 4), which yielded 38 hit compounds, hereafter referred to as TSA hits. The TSA screening above was conducted in the absence of NAD^+. As noted, the structure of Sirtuin 1 is different in the presence of NAD^+ and substrate. The chemical profile of TSA hits found from the different conditions could be different. […] As a result, 39 TSA hits were found. Regardless of the presence of NAD^+, 29 compounds were shared in both TSA hits.
B. Setup and validation of Protein Thermal Shift Assay.
All tested compounds were obtained from the screening compound collection of Enamine Ltd.
(Kiev, Ukraine). Stock solutions of the tested compounds were prepared at 10 mM in 100% DMSO and were stored at −20 °C until use. All thermal shift assay (TSA) experiments with SIRT1 protein were performed using ViiA™7 real-time PCR System equipped with 384-well heat block (Applied Biosystems, USA). General TSA methodology was adopted from the literature3-5 and experimentally modified in order to optimize conditions for measuring SIRT1 melting temperature shifts upon interaction with small molecules. To define the optimal buffer composition for the TSA procedure, a matrix of common buffers combined on a 96-well plate (Figure S3) was tested in thermal melt experiment on a 384-well plate (each buffer composition in quadruplicate). In addition, each buffer composition shown on Figure S3 was tested at two different buffering component concentrations, as listed in Table S1, resulting in two 384-well plate buffer screening experiments and the total of 192 different buffer compositions tested.
Figure S3. Matrix plate of the buffer compositions assessed for TSA optimization.
(1 picture or pasted object on this page, not shown here)
(§2) Table S1. Buffer concentrations used for preparing buffer composition matrix screening plates.
(§3) Buffer Plate 1 (mM) Plate 2 (mM)
(§4) Selection of the optimal buffer composition was based on balancing several criteria including undistorted protein melting curve, maximized melting temperature stability of SIRT1 protein and maximized melting temperature shift induced by the acetylated histone H3K9 peptide (KQTARK(Ac)STGG, a natural substrate of SIRT1). Thermal shift experiments were done at 120 µM H3K9 in the presence of 500 µM NAD+, a co-factor of SIRT1. Separate additions of H3K9 or […]
result, the buffer consisting of 20 mM Tris-HCl pH 8 and 50 mM NaCl was selected for the screening. Purified SIRT1 protein was pre-mixed with SYPRO Orange dye (Thermo Fischer Scientific, Cat. S6650, 5000x stock) to prepare a master mix at 400 µg/mL protein and 10x dye concentration. Tested compounds were added to the protein-dye master mix at 10 µM (1% final DMSO concentration) and incubated for 1 h at 4 °C in MicroAmp® optical 384-well reaction plates (ThermoFisher, Cat. 4309849) sealed with optical sealing film (ThermalSeal RT2, Excel Scientific, Cat. TS-RT2). The volumes of all reaction mixtures were 10 µL (4 µg SIRT1 per well). The reaction plates were then kept at ambient temperature (22-24 °C) for additional 15 minutes to ensure protein-compound interactions. Thermal scanning was performed by raising temperature to 35 °C at 1.6 °C/min without signal detection followed by 35 °C to 75 °C temperature ramp at 0.05 °C/s with […]

[2] = molecular target: T1, human SIRT1; assay: Thermal shift assay (TSA) of Sirtuin 1 in the presence of NAD+; type: binding; conditions: for ΔTm, additional TSA experiment: with NAD+, n = 4
Procedure: as §1, §2, §3, §4
result, the buffer consisting of 20 mM Tris-HCl pH 8 and 50 mM NaCl was selected for the screening. Purified SIRT1 protein was pre-mixed with SYPRO Orange dye (Thermo Fischer Scientific, Cat. S6650, 5000x stock) to prepare a master mix at 400 µg/mL protein and 10x dye concentration. Tested compounds were added to the protein-dye master mix at 10 µM (1% final DMSO concentration) and incubated for 1 h at 4 °C in MicroAmp® optical 384-well reaction plates (ThermoFisher, Cat. 4309849) sealed with optical sealing film (ThermalSeal RT2, Excel Scientific, Cat. TS-RT2). The volumes of all reaction mixtures were 10 µL (4 µg SIRT1 per well). The reaction plates were then kept at ambient temperature (22-24 °C) for additional 15 minutes to ensure protein-compound interactions. Thermal scanning was performed by raising temperature to 35 °C at 1.6 °C/min without signal detection followed by 35 °C to 75 °C temperature ramp at 0.05 °C/s with constant fluorescence intensity reading at 1 sec intervals using EX470/EM623 nm filter set. Primary screening of the whole test set of 3,192 compounds was carried out in singletons. The raw data of dye fluorescence intensity change upon protein melt were exported using the ViiA7 RUO software (Applied Biosystems/ThermoFischer Scientific). Further data visualization, curve fitting, melting temperature calculations on the raw fluorescence data were performed using custom-made Microsoft Excel scripts developed by us. The peak of the first derivative for the fluorescence curve was used to define melting temperature (Tm). Averaged Tm values for the control wells (64 wells per plate), containing only the protein, dye and 1% DMSO were used as a reference point to determine melting temperature shifts (ΔTm). Hit selection criteria was ΔTm > 0.45 °C or ΔTm < −1.5 °C. All primary hits were re-tested in the same assay at 3 concentrations (20, 10 and 5 µM, n = 4) for hit confirmation

[3] = test system: bovine carbonic anhydrase (CA); assay: TSA counterscreening on unrelated protein, carbonic anhydrase; type: binding; conditions: without NAD+
Procedure: as §1

[4] = molecular target: T2, recombinant SH2 domain of hABL1 kinase (ABL1) (Homo sapiens, UniProt P00519); assay: TSA counterscreening on unrelated protein, ABL1 SH2 domain; type: binding; conditions: without NAD+
T2 construct: recombinant SH2 domain of hABL1 kinase (ABL1)
T2 sequence (P00519 127-217 limits assumed): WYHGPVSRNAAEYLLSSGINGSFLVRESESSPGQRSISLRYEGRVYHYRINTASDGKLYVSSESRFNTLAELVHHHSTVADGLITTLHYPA
Procedure: as §1

[5] = molecular target: T1, human SIRT1; assay: SIRT-Glo luminogenic enzymatic inhibitory assay (inhibition rate and IC50); type: biochemical
Procedure: Note that the inhibitory assay was conducted with NAD^+.
Biochemical enzymatic assay for SIRT1
Luminogenic SIRT-Glo™ assay kit was purchased from Promega Corp. (Madison, WI; USA,
Enzymatic activity of SIRT1 in the presence of test compounds
the SIRT-Glo™ assay according to the manufacturer’s instructions (Promega Technical Manual for
SIRT-Glo™ Assay and Screening System). Briefly, the enzymatic reactions were performed in assay
SIRT1 was added to 3 ng/µL concentration to the wells containing tested compounds diluted in the
DMSO concentration) and the reactions (9 µL per well) were pre-incubated for 30 min at ambient
The enzymatic reactions were started by adding 9 µL of SIRT-Glo™
reagent (proprietary composition undisclosed by the vendor) to each assay well.
vigorous mixing using VibraTranslator (Union Scientific, USA) to ensure homogeneity, the plate
was incubated at the ambient temperature for 40 min. The final reaction volumes per well of a
384-well plate were 18 µL (1.5 ng/µL SIRT1: 20 nM). Luminescence signals were measured using
Omega PolarStar microplate reader (BMG Labtech, Ortenberg, Germany). Luminescence values
from the control plate wells with no added enzyme were used as a baseline.
The eight-point IC50 curve was built using 3x serial dilution
Primary compound dilutions were performed
in DMSO and each concentration was tested in quadruplicate. Assay data was analyzed in GraphPad
Prism,6 using Prism's built-in sigmoidal dose-response curve-fit algorithm and default settings of the
fit. Each error bar represents a standard deviation (SD) of inhibition rates for each concentration.
Dose-response curve (DRC) for SIRT1 inhibition by 20 compounds under SIRT-Glo™
assay conditions described in Section C of this supporting information. The determined IC50 value
The eight-point IC50 curves were built using 3x serial
dilution starting from compound concentration of 100 μM. Primary compound dilutions were
performed in DMSO and each concentration was tested in quadruplicate. Assay data was analyzed in
GraphPad Prism,6 using Prism's built-in sigmoidal dose-response curve-fit algorithm and default
Each bar represents a standard deviation (SD) of inhibition rates for each concentration.

[6] = test system: Sirtuin 1; conditions: cited from earlier work
[7] = test system: human leukemia U937 cells; set-up: method as in PMID 18348515; conditions: cited from earlier work
[8] = final Sirtuin 1 concentration 20 nM, n = 4, read-out: IC50

histone H3K9 peptide: acetylated histone H3K9 peptide (KQTARK(Ac)STGG, a natural substrate of SIRT1) (UniProt P68431 5-14, looked up, fragment) [reference compound]
thermal shift in SIRT1 melting curves, separate additions [1]: did not cause any thermal shift | Peptide induced thermal shift ([2]; 120 µM H3K9 in the presence of 500 µM NAD+): +1.2 °C

O=C1NC(=S)NC(=O)C1=Cc1cn(-c2ccccc2)nc1-c1cc2ccccc2o1 [Compound Z62466600]
ΔTm at 5 µM ([1]; without NAD+): 0.2 °C | ΔTm at 10 µM ([1]; without NAD+): 0.3 °C | ΔTm at 20 µM ([1]; without NAD+): 0.5 °C | ΔTm, additional TSA experiment ([1]; without NAD+, n = 4): 0.87 K | ΔTm CA ([3]; 5 μM): 0.0 K | ΔTm CA ([3]; 10 μM): 0.0 K | ΔTm CA ([3]; 20 μM): 0.0 K | ΔTm at 5 µM [4]: -0.2 °C | ΔTm at 10 µM [4]: 0.1 °C | ΔTm at 20 µM [4]: 0 °C | IC50 [5]: 7.1 µM

Cc1ccc(C(=O)Nc2nc3ccc(NS(=O)(=O)c4ccc5c(c4)CCC(=O)N5)cc3s2)s1 [Compound Z605844126]
IC50 [5, 8]: 15 µM

COc1ccc(NC(=O)CSc2nnc(Nc3ccc(SC(F)F)cc3)s2)cc1OC [Compound Z21813138]
IC50 [5, 8]: 7.7 µM | ΔTm, additional TSA experiment [2]: 0.32 K

O=C1/C(=C\c2cc(Br)cc(Br)c2O)CC/C1=C\c1cc(Br)cc(Br)c1O [Compound Z56773446]
ΔTm at 5 µM ([1]; without NAD+): 0.4 °C | ΔTm at 10 µM ([1]; without NAD+): 0.6 °C | ΔTm at 20 µM ([1]; without NAD+): 1 °C | ΔTm CA ([3]; 5 μM): 0.2 K | ΔTm CA ([3]; 10 μM): 0.5 K | ΔTm CA ([3]; 20 μM): 0.5 K | ΔTm at 5 µM [4]: 0 °C | ΔTm at 10 µM [4]: 0.1 °C | ΔTm at 20 µM [4]: 0.2 °C | IC50 [5, 8]: 4.1 µM | ΔTm, additional TSA experiment [2]: −0.05 K

CCNc1ncnc2cc(C(N)=O)sc12 [CHEMBL2332048]
IC50 [6]: > 50 µM

O=C1/C(=C/c2cc(Br)c(O)c(Br)c2)CCC/C1=C\c1cc(Br)c(O)c(Br)c1 [CHEMBL260149]
effect on apoptosis induction and granulocytic differentiation [7]: high differentiating activity | Inh. rate@25 μM ([6]; 25 μM): 0.95 (Inh. rate@25 μM: 50%)[57]

NC(=O)c1ccc[n+]([C@@H]2O[C@H](COP(=O)([O-])OP(=O)(O)OC[C@H]3O[C@@H](n4cnc5c(N)ncnc54)[C@H](O)[C@@H]3O)[C@@H](O)[C@H]2O)c1 [NAD+, nicotinamide adenine dinucleotide]
thermal shift in SIRT1 melting curves, separate additions [1]: did not cause any thermal shift

Cc1nc(-c2ccc(CCNC(=O)c3ccc(NC(=O)c4cccs4)cc3)s2)cs1 [Compound Z165049452]
IC50 [5, 8]: 12 µM
